Source: ChEMBL document CHEMBL4507272 (2021)

Key:
[1] = tested on: Tyrosine-protein kinase ABL1 (Homo sapiens), P00519 [H396P]; settings: Compound concentration 1000.0 nM
[2] = tested on: Tyrosine-protein kinase ABL1 (Homo sapiens), P00519 [M351T]; settings: Compound concentration 1000.0 nM
[3] = target: Activin receptor type-1B (Homo sapiens) (UniProt P36896); settings: Compound concentration 1000.0 nM
[4] = target: Activin receptor type-1-like (Homo sapiens) (UniProt P37023); settings: Compound concentration 1000.0 nM
[5] = target: RAC-alpha serine/threonine-protein kinase (Homo sapiens) (UniProt P31749); settings: Compound concentration 1000.0 nM
[6] = target: Tyrosine-protein kinase receptor UFO (Homo sapiens) (UniProt P30530); settings: Compound concentration 1000.0 nM
[7] = target: Bone morphogenetic protein receptor type-1B (Homo sapiens) (UniProt O00238); settings: Compound concentration 1000.0 nM
Sequence of Bone morphogenetic protein receptor type-1B (Homo sapiens) (O00238 whole entry): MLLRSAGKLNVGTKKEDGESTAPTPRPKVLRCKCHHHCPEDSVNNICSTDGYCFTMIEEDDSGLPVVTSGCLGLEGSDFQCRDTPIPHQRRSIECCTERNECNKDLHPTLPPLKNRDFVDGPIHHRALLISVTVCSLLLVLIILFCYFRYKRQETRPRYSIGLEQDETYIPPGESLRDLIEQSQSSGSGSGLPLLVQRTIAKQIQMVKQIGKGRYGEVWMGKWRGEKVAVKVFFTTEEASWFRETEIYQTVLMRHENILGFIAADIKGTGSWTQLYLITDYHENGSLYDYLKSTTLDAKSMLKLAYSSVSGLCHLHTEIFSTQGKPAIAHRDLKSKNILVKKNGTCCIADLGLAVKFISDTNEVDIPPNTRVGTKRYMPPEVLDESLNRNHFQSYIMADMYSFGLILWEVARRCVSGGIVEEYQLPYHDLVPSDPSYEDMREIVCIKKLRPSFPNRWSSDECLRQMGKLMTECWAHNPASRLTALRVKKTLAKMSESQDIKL

[8] = target: Cyclin-dependent kinase 3 (Homo sapiens) (UniProt Q00526); settings: Compound concentration 1000.0 nM
[9] = target: Serine/threonine-protein kinase MRCK gamma (Homo sapiens) (UniProt Q6DT37); settings: Compound concentration 1000.0 nM
[10] = tested on: Epidermal growth factor receptor (Homo sapiens), P00533 [G719S]; settings: Compound concentration 1000.0 nM
[11] = target: Ephrin type-A receptor 8 (Homo sapiens) (UniProt P29322); settings: Compound concentration 1000.0 nM
[12] = target: Ephrin type-B receptor 3 (Homo sapiens) (UniProt P54753); settings: Compound concentration 1000.0 nM
[13] = target: Mitogen-activated protein kinase 1 (Homo sapiens) (UniProt P28482); settings: Compound concentration 1000.0 nM
[14] = tested on: Receptor-type tyrosine-protein kinase FLT3 (Homo sapiens), P36888 [UNDEFINED MUTATION]; settings: Compound concentration 1000.0 nM
Sequence of Receptor-type tyrosine-protein kinase FLT3 (Homo sapiens), P36888 [UNDEFINED MUTATION] (P36888 whole entry, looked up, change not shown): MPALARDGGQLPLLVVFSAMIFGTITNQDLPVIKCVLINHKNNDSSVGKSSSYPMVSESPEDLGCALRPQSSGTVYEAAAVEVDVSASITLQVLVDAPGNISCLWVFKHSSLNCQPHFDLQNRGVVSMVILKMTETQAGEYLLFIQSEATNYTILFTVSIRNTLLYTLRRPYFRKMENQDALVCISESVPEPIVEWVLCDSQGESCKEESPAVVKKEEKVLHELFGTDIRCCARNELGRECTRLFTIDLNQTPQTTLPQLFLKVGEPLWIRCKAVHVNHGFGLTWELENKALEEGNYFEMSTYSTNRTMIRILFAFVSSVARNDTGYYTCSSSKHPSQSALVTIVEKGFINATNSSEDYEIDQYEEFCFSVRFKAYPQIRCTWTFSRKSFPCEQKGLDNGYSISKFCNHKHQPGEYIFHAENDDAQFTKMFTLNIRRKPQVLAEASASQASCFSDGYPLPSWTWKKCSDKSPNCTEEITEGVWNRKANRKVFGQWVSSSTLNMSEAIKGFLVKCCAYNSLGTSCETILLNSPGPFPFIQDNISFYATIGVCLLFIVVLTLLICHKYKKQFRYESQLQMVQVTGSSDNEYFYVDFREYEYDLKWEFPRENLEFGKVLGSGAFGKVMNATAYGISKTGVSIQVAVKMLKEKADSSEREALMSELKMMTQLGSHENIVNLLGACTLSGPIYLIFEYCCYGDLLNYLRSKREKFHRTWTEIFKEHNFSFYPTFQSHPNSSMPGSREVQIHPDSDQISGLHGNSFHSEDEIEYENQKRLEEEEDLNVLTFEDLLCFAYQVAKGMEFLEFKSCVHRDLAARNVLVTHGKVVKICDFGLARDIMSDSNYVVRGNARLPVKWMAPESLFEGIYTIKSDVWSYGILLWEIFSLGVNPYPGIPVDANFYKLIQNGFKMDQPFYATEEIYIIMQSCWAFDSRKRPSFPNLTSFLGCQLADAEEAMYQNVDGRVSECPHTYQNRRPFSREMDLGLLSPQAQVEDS

[15] = target: Glycogen synthase kinase-3 beta (Homo sapiens) (UniProt P49841); settings: Compound concentration 1000.0 nM
[16] = target: Inhibitor of nuclear factor kappa-B kinase subunit alpha (Homo sapiens) (UniProt O15111); settings: Compound concentration 1000.0 nM
[17] = target: Tyrosine-protein kinase Lyn (Homo sapiens) (UniProt P07948); settings: Compound concentration 1000.0 nM
[18] = target: Mitogen-activated protein kinase kinase kinase 1 (Homo sapiens) (UniProt Q13233); settings: Compound concentration 1000.0 nM
[19] = target: Serine/threonine-protein kinase MARK1 (Homo sapiens) (UniProt Q9P0L2); settings: Compound concentration 1000.0 nM
[20] = target: Serine/threonine-protein kinase NLK (Homo sapiens) (UniProt Q9UBE8); settings: Compound concentration 1000.0 nM
[21] = target: Serine/threonine-protein kinase PAK 5 (Homo sapiens) (UniProt Q9P286); settings: Compound concentration 1000.0 nM
[22] = target: Platelet-derived growth factor receptor beta (Homo sapiens) (UniProt P09619); settings: Compound concentration 1000.0 nM
[23] = target: Cyclin-dependent kinase 2 homolog (Plasmodium falciparum (isolate 3D7)) (UniProt P61075); settings: Compound concentration 1000.0 nM
[24] = target: Phosphatidylinositol 3-kinase C2 domain-containing subunit gamma (Homo sapiens) (UniProt O75747); settings: Compound concentration 1000.0 nM
[25] = tested on: Phosphatidylinositol 4,5-bisphosphate 3-kinase catalytic subunit alpha isoform (Homo sapiens), P42336 [H1047L]; settings: Compound concentration 1000.0 nM
[26] = target: Phosphatidylinositol 4,5-bisphosphate 3-kinase catalytic subunit delta isoform (Homo sapiens) (UniProt O00329); settings: Compound concentration 1000.0 nM
Sequence of Phosphatidylinositol 4,5-bisphosphate 3-kinase catalytic subunit delta isoform (Homo sapiens) (O00329 whole entry, canonical isoform): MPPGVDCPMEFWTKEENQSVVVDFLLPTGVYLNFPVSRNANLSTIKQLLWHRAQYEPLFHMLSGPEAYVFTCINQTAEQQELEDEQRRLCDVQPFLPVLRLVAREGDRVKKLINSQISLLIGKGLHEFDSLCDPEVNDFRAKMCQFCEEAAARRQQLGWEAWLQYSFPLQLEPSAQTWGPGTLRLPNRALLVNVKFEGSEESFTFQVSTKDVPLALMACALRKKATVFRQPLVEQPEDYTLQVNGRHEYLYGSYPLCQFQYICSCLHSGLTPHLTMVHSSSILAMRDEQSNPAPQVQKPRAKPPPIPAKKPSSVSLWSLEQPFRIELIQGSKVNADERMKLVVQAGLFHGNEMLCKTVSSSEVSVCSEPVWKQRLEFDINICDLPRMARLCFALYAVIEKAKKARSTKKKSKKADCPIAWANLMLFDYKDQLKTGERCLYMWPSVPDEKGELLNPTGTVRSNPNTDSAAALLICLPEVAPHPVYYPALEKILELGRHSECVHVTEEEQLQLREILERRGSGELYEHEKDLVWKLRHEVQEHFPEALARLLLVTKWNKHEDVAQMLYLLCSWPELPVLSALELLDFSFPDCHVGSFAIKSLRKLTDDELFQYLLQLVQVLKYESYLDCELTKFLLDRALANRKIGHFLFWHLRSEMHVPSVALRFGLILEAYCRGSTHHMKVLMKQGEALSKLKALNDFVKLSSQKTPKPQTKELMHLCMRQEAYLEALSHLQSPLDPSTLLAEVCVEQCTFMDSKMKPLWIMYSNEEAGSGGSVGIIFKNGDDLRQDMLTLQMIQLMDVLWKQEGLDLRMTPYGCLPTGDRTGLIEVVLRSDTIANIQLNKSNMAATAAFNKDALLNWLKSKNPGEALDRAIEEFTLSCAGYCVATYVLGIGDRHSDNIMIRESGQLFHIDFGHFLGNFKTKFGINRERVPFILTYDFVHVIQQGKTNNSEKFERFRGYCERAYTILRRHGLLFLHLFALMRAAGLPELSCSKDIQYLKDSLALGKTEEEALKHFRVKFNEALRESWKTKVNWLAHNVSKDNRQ

[27] = target: Phosphatidylinositol 4-phosphate 5-kinase type-1 alpha (Homo sapiens) (UniProt Q99755); settings: Compound concentration 1000.0 nM
[28] = target: cAMP-dependent protein kinase catalytic subunit alpha (Homo sapiens) (UniProt P17612); settings: Compound concentration 1000.0 nM
[29] = target: Serine/threonine-protein kinase PLK2 (Homo sapiens) (UniProt Q9NYY3); settings: Compound concentration 1000.0 nM
[30] = target: Serine/threonine-protein kinase PLK3 (Homo sapiens) (UniProt Q9H4B4); settings: Compound concentration 1000.0 nM
Sequence of Serine/threonine-protein kinase PLK3 (Homo sapiens) (Q9H4B4 whole entry, looked up): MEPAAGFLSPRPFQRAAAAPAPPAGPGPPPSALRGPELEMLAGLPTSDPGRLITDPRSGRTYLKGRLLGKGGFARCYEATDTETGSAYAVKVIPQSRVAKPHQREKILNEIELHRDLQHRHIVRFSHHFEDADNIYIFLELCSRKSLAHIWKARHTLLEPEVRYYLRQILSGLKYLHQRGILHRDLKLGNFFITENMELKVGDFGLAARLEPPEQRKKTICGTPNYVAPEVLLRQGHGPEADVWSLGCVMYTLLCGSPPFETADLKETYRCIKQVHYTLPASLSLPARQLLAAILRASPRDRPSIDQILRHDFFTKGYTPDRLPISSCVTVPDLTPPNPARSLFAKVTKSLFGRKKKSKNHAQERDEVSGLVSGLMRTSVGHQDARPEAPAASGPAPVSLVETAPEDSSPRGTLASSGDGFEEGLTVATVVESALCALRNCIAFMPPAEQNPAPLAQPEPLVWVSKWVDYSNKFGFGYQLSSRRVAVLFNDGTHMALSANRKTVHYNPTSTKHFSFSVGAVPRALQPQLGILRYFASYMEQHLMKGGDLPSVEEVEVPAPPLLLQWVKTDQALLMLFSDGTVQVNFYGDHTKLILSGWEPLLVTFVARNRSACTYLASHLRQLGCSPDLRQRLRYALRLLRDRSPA

[31] = target: Protein kinase C epsilon type (Homo sapiens) (UniProt Q02156); settings: Compound concentration 1000.0 nM
Sequence of Protein kinase C epsilon type (Homo sapiens) (Q02156 whole entry): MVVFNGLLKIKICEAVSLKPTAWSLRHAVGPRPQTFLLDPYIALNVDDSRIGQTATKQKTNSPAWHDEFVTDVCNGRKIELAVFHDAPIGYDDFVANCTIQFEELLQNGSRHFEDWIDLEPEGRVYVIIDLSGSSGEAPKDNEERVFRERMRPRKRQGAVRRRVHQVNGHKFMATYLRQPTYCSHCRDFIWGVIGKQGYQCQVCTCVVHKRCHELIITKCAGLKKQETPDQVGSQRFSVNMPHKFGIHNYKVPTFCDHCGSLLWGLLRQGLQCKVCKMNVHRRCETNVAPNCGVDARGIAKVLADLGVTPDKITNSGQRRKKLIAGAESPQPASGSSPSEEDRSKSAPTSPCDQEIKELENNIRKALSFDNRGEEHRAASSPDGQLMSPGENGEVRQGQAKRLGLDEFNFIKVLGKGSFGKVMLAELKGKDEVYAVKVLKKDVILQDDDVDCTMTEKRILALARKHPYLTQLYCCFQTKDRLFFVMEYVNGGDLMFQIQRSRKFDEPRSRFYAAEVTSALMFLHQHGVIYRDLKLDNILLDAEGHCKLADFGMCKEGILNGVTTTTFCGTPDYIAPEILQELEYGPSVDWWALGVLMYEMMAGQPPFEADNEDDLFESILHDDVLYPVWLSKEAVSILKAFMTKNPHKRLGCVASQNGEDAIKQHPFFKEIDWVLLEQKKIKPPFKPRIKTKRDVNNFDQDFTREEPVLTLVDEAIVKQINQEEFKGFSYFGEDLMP

[32] = target: RAF proto-oncogene serine/threonine-protein kinase (Homo sapiens) (UniProt P04049); settings: Compound concentration 1000.0 nM
[33] = target: Ribosomal protein S6 kinase alpha-5 (Homo sapiens) (UniProt O75582); settings: Compound concentration 1000.0 nM
[34] = target: Serine/threonine-protein kinase 35 (Homo sapiens) (UniProt Q8TDR2); settings: Compound concentration 1000.0 nM
[35] = target: Serine/threonine-protein kinase TAO2 (Homo sapiens) (UniProt Q9UL54); settings: Compound concentration 1000.0 nM
[36] = target: Serine/threonine-protein kinase TBK1 (Homo sapiens) (UniProt Q9UHD2); settings: Compound concentration 1000.0 nM
[37] = target: Tyrosine-protein kinase receptor Tie-1 (Homo sapiens) (UniProt P35590); settings: Compound concentration 1000.0 nM
Sequence of Tyrosine-protein kinase receptor Tie-1 (Homo sapiens) (P35590 whole entry): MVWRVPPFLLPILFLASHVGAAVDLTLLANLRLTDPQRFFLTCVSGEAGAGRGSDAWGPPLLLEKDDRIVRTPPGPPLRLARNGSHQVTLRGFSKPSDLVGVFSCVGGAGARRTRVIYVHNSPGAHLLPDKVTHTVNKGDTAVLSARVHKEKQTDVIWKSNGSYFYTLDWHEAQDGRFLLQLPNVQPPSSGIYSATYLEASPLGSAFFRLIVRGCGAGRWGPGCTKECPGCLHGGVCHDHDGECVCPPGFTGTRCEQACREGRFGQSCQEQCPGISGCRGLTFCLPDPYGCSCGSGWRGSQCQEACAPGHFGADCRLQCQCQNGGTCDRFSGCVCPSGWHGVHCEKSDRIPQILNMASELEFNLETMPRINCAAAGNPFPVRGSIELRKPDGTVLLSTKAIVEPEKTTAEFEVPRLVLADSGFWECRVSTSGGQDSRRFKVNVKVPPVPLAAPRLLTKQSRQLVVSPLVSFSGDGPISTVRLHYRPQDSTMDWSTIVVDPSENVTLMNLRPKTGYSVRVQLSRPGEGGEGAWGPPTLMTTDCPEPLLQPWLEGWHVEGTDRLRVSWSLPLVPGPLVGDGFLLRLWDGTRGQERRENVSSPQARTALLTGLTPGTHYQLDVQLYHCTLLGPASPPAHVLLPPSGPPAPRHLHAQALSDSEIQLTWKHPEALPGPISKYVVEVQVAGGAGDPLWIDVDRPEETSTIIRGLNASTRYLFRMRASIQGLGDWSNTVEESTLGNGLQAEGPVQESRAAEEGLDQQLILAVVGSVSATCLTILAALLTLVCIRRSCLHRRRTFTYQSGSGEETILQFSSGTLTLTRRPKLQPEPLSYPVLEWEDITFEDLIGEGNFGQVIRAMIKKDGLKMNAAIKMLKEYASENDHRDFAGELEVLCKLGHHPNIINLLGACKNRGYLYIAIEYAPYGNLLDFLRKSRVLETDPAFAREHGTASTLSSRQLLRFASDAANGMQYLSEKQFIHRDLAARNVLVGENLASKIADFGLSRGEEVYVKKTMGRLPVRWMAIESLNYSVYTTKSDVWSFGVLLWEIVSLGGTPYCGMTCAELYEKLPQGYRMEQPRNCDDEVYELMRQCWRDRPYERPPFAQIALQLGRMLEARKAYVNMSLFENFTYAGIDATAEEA

[38] = target: Angiopoietin-1 receptor (Homo sapiens) (UniProt Q02763); settings: Compound concentration 1000.0 nM
[39] = target: Tyrosine-protein kinase receptor TYRO3 (Homo sapiens) (UniProt Q06418); settings: Compound concentration 1000.0 nM
[40] = target: Serine/threonine-protein kinase VRK2 (Homo sapiens) (UniProt Q86Y07); settings: Compound concentration 1000.0 nM
[41] = target: D(4) dopamine receptor (Homo sapiens) (UniProt P21917); settings: Compound concentration 10.0 uM
[42] = target: Alpha-1B adrenergic receptor (Homo sapiens) (UniProt P35368); settings: Compound concentration 10.0 uM
[43] = target: Muscarinic acetylcholine receptor M3 (Homo sapiens) (UniProt P20309); settings: Compound concentration 10.0 uM
[44] = target: Muscarinic acetylcholine receptor M4 (Homo sapiens) (UniProt P08173); settings: Compound concentration 10.0 uM
[45] = target: Beta-3 adrenergic receptor (Homo sapiens) (UniProt P13945); settings: Compound concentration 10.0 uM

CC(=O)C1=C(C)N(c2cccc(C(F)(F)F)c2)C(=O)N[C@@H]1c1ccc(C#N)nc1 [BAY-678]
inactive: residual activity [1] 100% | residual activity [2] 100% | residual activity [3] 100% | residual activity [4] 71.7% | residual activity [5] 90.4% | residual activity [6] 100% | residual activity [7] 74.2% | residual activity [8] 100% | residual activity [9] 79.3% | residual activity [10] 100% | residual activity [11] 100% | residual activity [12] 100% | residual activity [13] 98.9% | residual activity [14] 61.2% | residual activity [15] 100% | residual activity [16] 100% | residual activity [17] 100% | residual activity [18] 100% | residual activity [19] 100% | residual activity [20] 93% | residual activity [21] 96.2% | residual activity [22] 94% | residual activity [23] 100% | residual activity [24] 78.2% | residual activity [25] 69% | residual activity [26] 89.8% | residual activity [27] 100% | residual activity [28] 92.3% | residual activity [29] 97.8% | residual activity [30] 84.2% | residual activity [31] 73.9% | residual activity [32] 100% | residual activity [33] 89.2% | residual activity [34] 85.9% | residual activity [35] 94.4% | residual activity [36] 89.5% | residual activity [37] 89.9% | residual activity [38] 100% | residual activity [39] 66.9% | residual activity [40] 77.6% | inhibition [41] 15.9% | inhibition [42] -1.17% | inhibition [43] 10.4% | inhibition [44] -6.72% | inhibition [45] -0.551%
